Test results: patent publication US10968193B2, “Antidiabetic bicyclic compounds” (Merck Sharp & Dohme Corp., priority 2014, dated 2021)
pEC50: −log10 of the molar value.

What follows are compounds tested against T1, human GPR40 (Homo sapiens, UniProt O14842) (assay: Inositol Phosphate Turnover (IP1) Assay 3). Details: HEK cells stably expressing human GPR40.
T1 construct: expressed in transfected cells; host or cells: HEK cells stably expressing the aequorin reporter
Type: cell-based
Summary of the method: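 HEK cells stably expressing human GPR40, plated 16 h before, were treated with compound for 60 min at 37 °C in stimulation buffer. IP1 measured by HTRF (665/620 nm ratio) against an IP1 standard curve; activity normalized to a reference compound, EC50 from 4-parameter fit.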

T1 sequence (O14842 whole entry): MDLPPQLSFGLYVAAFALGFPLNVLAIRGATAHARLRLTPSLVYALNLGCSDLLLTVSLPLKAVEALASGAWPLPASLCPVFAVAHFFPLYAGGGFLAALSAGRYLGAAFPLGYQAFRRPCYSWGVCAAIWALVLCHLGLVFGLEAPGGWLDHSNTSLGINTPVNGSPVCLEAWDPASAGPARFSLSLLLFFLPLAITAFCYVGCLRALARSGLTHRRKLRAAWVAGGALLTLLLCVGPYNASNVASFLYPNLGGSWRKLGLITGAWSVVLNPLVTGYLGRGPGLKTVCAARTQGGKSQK

Compared with `COc1cc(-c2ccc(C3CCc4ccc([C@H](C5CC5)[C@H](C)C(=O)O)c(F)c4O3)cc2CN2[C@H](C)CC[C@H]2C)c(F)cn1` (single isomer, unassigned) [Example 208], `COc1cc(-c2ccc(C3CCc4ccc([C@H](C5CC5)[C@H](C)C(=O)O)c(F)c4O3)cc2CN2CCC[C@H]2C)c(F)cn1` (single isomer, unassigned) [Example 210] is 0.63 log units lower in pEC50: 9.14 for the first, 8.51 for the second. The first is the more potent here.

First: COc1cc(-c2ccc(C3CCc4ccc([C@H](C5CC5)[C@H](C)C(=O)O)c(F)c4O3)cc2CN2[C@H](C)CC[C@H]2C)c(F)cn1 (single isomer, unassigned) [Example 209]
Second: COc1cc(-c2ccc(C3CCc4ccc([C@H](C5CC5)[C@H](C)C(=O)O)c(F)c4O3)cc2CN2CCC[C@H]2C)c(F)cn1 (single isomer, unassigned) [Example 211]
The pEC50 of the first is 0.62 log units higher: 9.30 for the first, 8.68 for the second. The first is the more potent here.

Compared with `COc1cc(-c2ccc(C3CCc4ccc([C@H](C5CC5)[C@H](C)C(=O)O)c(F)c4O3)cc2CN2CCC[C@@H]2C)c(F)cn1` (single isomer, unassigned) [Example 212], `COc1cc(-c2ccc(C3CCc4ccc([C@H](C5CCC5)[C@H](C)C(=O)O)cc4O3)cc2CN2CCCC2C)c(F)cn1` (some centres unmarked) [Example 102] is 1.64 log units higher in pEC50: 8.51 for the first, 10.15 for the second. The second is the more potent here.

First: COc1cc(-c2ccc(C3CCc4ccc([C@H](C5CC5)[C@H](C)C(=O)O)c(F)c4O3)cc2CN2CCC[C@@H]2C)c(F)cn1 (single isomer, unassigned) [Example 213]
Second: COc1cc(-c2ccc(C3CCc4ccc([C@H](C5CCC5)[C@H](C)C(=O)O)cc4O3)cc2CN2CCCC2C)c(F)cn1 (some centres unmarked) [Example 103]
The pEC50 of the first is 1.20 log units lower: 8.85 for the first, 10.05 for the second. The second is the more potent here.

First: CCOc1cc(-c2ccc(C3CCc4ccc([C@H](C5CC5)[C@H](C)C(=O)O)cc4O3)cc2CN(CC)CC)c(Cl)cn1 (single isomer, unassigned) [Example 214]
Second: CCOc1cc(-c2ccc(C3CCc4ccc([C@H](C5CC5)[C@H](C)C(=O)O)cc4O3)cc2CN2CCCC2)c(Cl)cn1 (single isomer, unassigned) [Example 217]
The pEC50 of the first is 0.68 log units higher: 7.92 for the first, 7.24 for the second. The first is the more potent here.

Compared with `CCOc1cc(-c2ccc(C3CCc4ccc([C@H](C5CC5)[C@H](C)C(=O)O)cc4O3)cc2CN(CC)CC)c(Cl)cn1` (single isomer, unassigned) [Example 215], `CCOc1cc(-c2ccc(C3CCc4ccc([C@H](C5CC5)[C@H](C)C(=O)O)cc4O3)cc2CN2CCCC2)c(Cl)cn1` (single isomer, unassigned) [Example 218] is 0.22 log units lower in pEC50: 8.22 for the first, 8.00 for the second.

First: COc1cc(-c2ccc(C3CCc4ccc([C@H](C5CC5)[C@H](C)C(=O)O)cc4O3)c(F)c2CN2CCCC2)c(F)cn1 (single isomer, unassigned) [Example 219]
Second: COc1cc(-c2ccc(C3CCc4ccc([C@H](C5CC5)[C@H](C)C(=O)O)cc4O3)nc2CN2CCCC2)c(F)cn1 (some centres unmarked) [Example 90]
The pEC50 of the first is 0.68 log units higher: 8.70 for the first, 8.02 for the second. The first is the more potent here.

First: COc1cc(-c2ccc(C3CCc4ccc([C@H](C5CC5)[C@H](C)C(=O)O)cc4O3)c(F)c2CN2CCCC2)c(F)cn1 (single isomer, unassigned) [Example 220]
Second: COc1cc(-c2ccc(C3CCc4ccc([C@H](C5CC5)[C@H](C)C(=O)O)cc4O3)c(CN3CCCC[C@@H]3C)c2)c(F)cn1 (some centres unmarked) [Example 131]
The pEC50 of the first is 1.91 log units lower: 8.14 for the first, 10.05 for the second.

Going from `CCN(CC)Cc1cc(C2CCc3ccc([C@H](C4CC4)[C@H](C)C(=O)O)cc3O2)ccc1-c1ccnc(OC)c1` (single isomer, unassigned) [Example 221] to `CCN(C(C)C)C(C)c1cc(C2CCc3ccc([C@H](C4CC4)[C@H](C)C(=O)O)cc3O2)ccc1-c1ccnc(OC)c1` (single isomer, unassigned) [Example 247], the pEC50 rises from 7.85 to 8.89 (1.04 log units). The second is the more potent here.

First: COc1cc(-c2ccc(C3CCc4ccc([C@H](C5CC5)[C@H](C)C(=O)O)cc4O3)cc2CN2CCCCC23CC3)ccn1 (single isomer, unassigned) [Example 222]
Second: COc1cc(-c2ccc([C@H]3CCc4ccc([C@H](C5CC5)[C@H](C)C(=O)O)cc4O3)cc2CN2CCCCC23CC3)ccn1 [Example 176]
The pEC50 of the first is 0.81 log units lower: 8.89 for the first, 9.70 for the second.

First: COc1cc(-c2ccc(C3CCc4ccc([C@H](C5CC5)[C@H](C)C(=O)O)cc4O3)c(CN3CCCCC34CC4)c2)ccn1 (single isomer, unassigned) [Example 223]
Second: COc1cc(-c2ccc(C3CCc4ccc([C@H](C5CC5)[C@H](C)C(=O)O)cc4O3)c(CN3CCCC[C@@H]3C)c2)ccn1 (some centres unmarked) [Example 121]
The pEC50 of the first is 0.90 log units higher: 10.30 for the first, 9.40 for the second.

Going from `COc1cc(-c2ccc(C3CCc4ccc([C@H](C5CC5)[C@H](C)C(=O)O)cc4O3)c(CN3CCCCC34CC4)c2)ccn1` (single isomer, unassigned) [Example 224] to `COc1cc(-c2ccc(C3CCc4ccc([C@H](C5CC5)[C@H](C)C(=O)O)cc4O3)c(CN3[C@H](C)CC[C@H]3C)c2)ccn1` (some centres unmarked) [Example 116], the pEC50 falls from 7.96 to 6.98 (0.98 log units).

`CCN(CC)C(C)c1cc(C2CCc3ccc([C@H](C4CC4)[C@H](C)C(=O)O)cc3O2)ccc1-c1cc(OC)ncc1F` (single isomer, unassigned) [Example 244] and `CCN(Cc1cc([C@H]2CCc3ccc([C@H](C4CC4)[C@H](C)C(=O)O)cc3O2)ccc1-c1cc(OC)ncc1F)C(C)C` [Example 139] are within 0.2 log units of each other in pEC50: 9.37 for the first, 9.30 for the second.

First: CCN(CC)C(C)c1cc(C2CCc3ccc([C@H](C4CC4)[C@H](C)C(=O)O)cc3O2)ccc1-c1cc(OC)ncc1F (single isomer, unassigned) [Example 245]
Second: COc1cc(-c2ccc([C@H]3CCc4ccc([C@H](C5CC5)[C@H](C)C(=O)O)cc4O3)cc2CN(C(C)C)C(C)C)c(F)cn1 [Example 170]
The pEC50 of the first is 1.88 log units lower: 8.27 for the first, 10.15 for the second.

Going from `CCN(C(C)C)C(C)c1cc(C2CCc3ccc([C@H](C4CC4)[C@H](C)C(=O)O)cc3O2)ccc1-c1ccnc(OC)c1` (single isomer, unassigned) [Example 248] to `COc1cc(-c2ccc(C3CCc4ccc([C@H](C5CC5)[C@H](C)C(=O)O)cc4O3)nc2CN(C(C)C)C(C)C)ccn1` (some centres unmarked) [Example 91], the pEC50 falls from 7.94 to 6.33 (1.61 log units). The first is the more potent here.

`COc1cc(-c2ccc(C3CCc4ccc([C@H](C5CC5)[C@H](C)C(=O)O)cc4O3)cc2CN2CCC3CC32)c(F)cn1` (single isomer, unassigned) [Example 256a] and `CCC1CCCN1Cc1cc(C2CCc3ccc([C@H](C4CC4)[C@H](C)C(=O)O)cc3O2)ccc1-c1cc(OC)ncc1F` (single isomer, unassigned) [Example 267a] are within 0.2 log units of each other in pEC50: 9.22 for the first, 9.15 for the second.

First: COc1cc(-c2ccc(C3CCc4ccc([C@H](C5CC5)[C@H](C)C(=O)O)cc4O3)cc2CN2CCC3CC32)c(F)cn1 (single isomer, unassigned) [Example 256b]
Second: CCC1CCCN1Cc1cc(C2CCc3ccc([C@H](C4CC4)[C@H](C)C(=O)O)cc3O2)ccc1-c1cc(OC)ncc1F (single isomer, unassigned) [Example 267b]
The pEC50 of the first is 0.95 log units lower: 9.05 for the first, 10.00 for the second.

Going from `CCC1CCCCN1Cc1cc(C2CCc3ccc(C(C4CC4)C(C)C(=O)O)cc3O2)ccc1-c1ccnc(OC)c1` (single isomer, unassigned) [Example 258a] to `CCC1CCCCN1Cc1cc(C2CCc3ccc([C@H](C4CC4)[C@H](C)C(=O)O)cc3O2)ccc1-c1cc(OC)ncc1F` (single isomer, unassigned) [Example 273a], the pEC50 rises from 8.77 to 10.10 (1.33 log units).

Going from `CCC1CCCCN1Cc1cc(C2CCc3ccc(C(C4CC4)C(C)C(=O)O)cc3O2)ccc1-c1ccnc(OC)c1` (single isomer, unassigned) [Example 258b] to `CCC1CCCCN1Cc1cc(C2CCc3ccc([C@H](C4CC4)[C@H](C)C(=O)O)cc3O2)ccc1-c1cc(OC)ncc1F` (single isomer, unassigned) [Example 273b], the pEC50 rises from 8.66 to 9.52 (0.86 log units).

Going from `CCN(CC)Cc1cc(C2CCc3ccc([C@H](C4CC4)[C@H](C)C(=O)O)cc3O2)ccc1-c1ccnc(OC)c1` (single isomer, unassigned) [Example 283] to `COc1cc(-c2ccc(C3CCc4ccc([C@H](C5CC5)[C@H](C)C(=O)O)cc4O3)cc2CN2CCCC2)ccn1` (stereo partly drawn) [Example 175, (2S, 3R)-3-cyclopropyl-3-(2-(4-(2-methoxypyridin-4-yl)-3-(pyrrolidin-1-ylmethyl)phenyl)-chroman-7-yl)-2-methylpropanoic acid], the pEC50 falls from 8.36 to 7.28 (1.08 log units).

Going from `COc1cc(-c2ccc(C3CCc4ccc([C@H](C5CC5)[C@H](C)C(=O)O)cc4O3)c(CN3[C@H](C)CC[C@@H]3C)c2)ccn1` (some centres unmarked) [Example 122] to `COc1cc(-c2ccc(C3CCc4ccc([C@H](C5CC5)[C@H](C)C(=O)O)cc4O3)c(CN3[C@H](C)CC[C@H]3C)c2)c(F)cn1` (some centres unmarked) [Example 127], the pEC50 rises from 9.15 to 9.70 (0.55 log units). The second is the more potent here.

Going from `COc1cc(-c2ccc([C@H]3CCc4ccc([C@H](C5CC5)[C@H](C)C(=O)O)cc4O3)cc2CN2C[C@H]3C[C@H]3C2)c(F)cn1` [Example 138] to `COc1cc(-c2ccc(C3CCc4ccc([C@H](C5CC5)[C@H](C)C(=O)O)cc4O3)cc2CN2CC3CC3C2)c(C#N)cn1` (stereo partly drawn) [Example 191, (2S, 3R)-3-(2-(3-(3-azabicyclo[3.1.0]hexan-3-ylmethyl)-4-(5-cyano-2-methoxypyridin-4-yl)phenyl)chroman-7-yl)-3-cyclopropyl-2-methylpropanoic acid], the pEC50 falls from 9.52 to 8.72 (0.80 log units). The first is the more potent here.

First: COc1cc(-c2ccc([C@@H]3CCc4ccc([C@H](C5CC5)[C@H](C)C(=O)O)cc4O3)cc2CN(C(C)C)C(C)C)c(F)cn1 [Example 225, Sodium (2S,3R)-3-cyclopropyl-3-((S)-2-(3-((diisopropylamino)methyl)-4-(5-fluoro-2-methoxypyridin-4-yl)phenyl)chroman-7-yl)-2-methylpropanoate]
Second: COc1cc(-c2ccc([C@@H]3CCc4ccc([C@H](C5CC5)[C@H](C)C(=O)O)cc4O3)cc2CN(C)C(C)(C)C)c(F)cn1 [Example 226, Sodium (2S,3R)-3-((S)-2-(3-((tert-butyl(methyl)amino)methyl)-4-(5-fluoro-2-methoxypyridin-4-yl)phenyl)chroman-7-yl)-3-cyclopropyl-2-methylpropanoate]
The pEC50 of the first is 1.19 log units higher: 10.15 for the first, 8.96 for the second. The first is the more potent here.

`COc1cc(-c2ccc(C3CCc4ccc([C@H](C5CC5)[C@@H](C)C(=O)O)cc4O3)cc2CN(C)C(C)(C)C)c(F)cn1` (some centres unmarked) [Example 227] gave a pEC50 of 7.85.
